Laboratory results reported in ChEMBL document CHEMBL1124720, “4'-[(4-Piperidyl)carbonyl]methanesulfonanilides as potent, selective, bioavailable class III antiarrhythmic agents” (J Med Chem, 1990).
The source made the active and inactive calls. No cut-off for these calls is given here.

Tests used:
Canis familiaris [1] = test: Percent change in Mean Blood pressure after intravenous administration of 0.3 mg/kg in Anesthetized Dogs; type: functional, Canis lupus familiaris
Canis familiaris [2] = test: Percent change in Mean Blood pressure after intravenous administration of 1 mg/kg in Anesthetized Dogs; type: functional, Canis lupus familiaris
Canis familiaris [3] = test: Percent change in Mean Blood pressure after intravenous administration of 3 mg/kg in Anesthetized Dogs; type: functional, Canis lupus familiaris
Canis familiaris [4] = test: Percent change in rate of left ventricular pressure after intravenous administration of 0.3 mg/kg in Anesthetized Dogs; type: functional, Canis lupus familiaris, Heart left ventricle
Canis familiaris [5] = test: Percent change in rate of left ventricular pressure after intravenous administration of 1 mg/kg in Anesthetized Dogs; type: functional, Canis lupus familiaris, Heart left ventricle
Canis familiaris [6] = test: Percent change in QTc interval after intravenous administration of 0.3 mg/kg in Anesthetized Dogs; type: functional, Canis lupus familiaris
Canis familiaris [7] = test: Percent change in QTc interval after intravenous administration of 1 mg/kg in Anesthetized Dogs; type: functional, Canis lupus familiaris
Canis familiaris [8] = test: Percent change in QTc interval after intravenous administration of 3 mg/kg in Anesthetized Dogs; type: functional, Canis lupus familiaris
Canis familiaris [9] = test: Percent change in Heart rate after intravenous administration of 0.3 mg/kg in Anesthetized Dogs; type: functional, Canis lupus familiaris
Canis familiaris [10] = test: Percent change in Heart rate after intravenous administration of 1 mg/kg in Anesthetized Dogs; type: functional, Canis lupus familiaris
Canis familiaris [11] = test: Percent change in Heart rate after intravenous administration of 3 mg/kg in Anesthetized Dogs; type: functional, Canis lupus familiaris
Canis familiaris [12] = test: Percent change in Effective refractory period after intravenous administration of 0.3 mg/kg in Anesthetized Dogs; type: functional, Canis lupus familiaris
Canis familiaris [13] = test: Percent change in Effective refractory period after intravenous administration of 1 mg/kg in Anesthetized Dogs; type: functional, Canis lupus familiaris
Canis familiaris [14] = test: Percent change in Effective refractory period after intravenous administration of 3 mg/kg in Anesthetized Dogs; type: functional, Canis lupus familiaris
Cavia porcellus [15] = species: Cavia porcellus; test: Concentration (1-100 uM) that causes 10% prolongation in the action potential duration at 90% […] in Guinea pig right ventricular papillary muscles; type: functional, Muscle tissue
Cavia porcellus [16] = species: Cavia porcellus; test: Maximum percent increase in 90% repolarization at a concentration of 100 uM in Guinea pig right ventricular papillary muscles; type: functional, Muscle tissue
Cavia porcellus [17] = species: Cavia porcellus; test: The maximum percent change in the maximum rate rise of the action Potential in Guinea pig right ventricular papillary muscles at concentration 1-100 uM; NS=Not significant; type: functional; conditions: Muscle tissue
Canis familiaris [18] = test: Percent change in rate of left ventricular pressure after intravenous administration of 3 mg/kg in Anesthetized Dogs; type: functional, Canis lupus familiaris, Heart left ventricle
Canis familiaris [19] = test: Percent change in Heart rate after intravenous administration of 0.003 mg/kg in Anesthetized Dogs; type: functional, Canis lupus familiaris
Canis familiaris [20] = test: Percent change in Mean Blood pressure after intravenous administration of 0.01 mg/kg in Anesthetized Dogs; type: functional, Canis lupus familiaris
Canis familiaris [21] = test: Percent change in Mean Blood pressure after intravenous administration of 0.03 mg/kg in Anesthetized Dogs; type: functional, Canis lupus familiaris
Canis familiaris [22] = test: Percent change in Heart rate after intravenous administration of 0.01 mg/kg in Anesthetized Dogs; type: functional, Canis lupus familiaris
Canis familiaris [23] = test: Percent change in Heart rate after intravenous administration of 0.03 mg/kg in Anesthetized Dogs; type: functional, Canis lupus familiaris
Canis familiaris [24] = test: Percent change in Effective refractory period after intravenous administration of 0.003 mg/kg in Anesthetized Dogs; type: functional, Canis lupus familiaris
Canis familiaris [25] = test: Percent change in Effective refractory period after intravenous administration of 0.01 mg/kg in Anesthetized Dogs; type: functional, Canis lupus familiaris
Canis familiaris [26] = test: Percent change in Effective refractory period after intravenous administration of 0.03 mg/kg in Anesthetized Dogs; type: functional, Canis lupus familiaris
Cavia porcellus [27] = species: Cavia porcellus; test: Concentration (0.1-10 uM) that causes 10% prolongation in the action potential duration at 90% […] in Guinea pig right ventricular papillary muscles; type: functional, Muscle tissue
[28] = Half life of beta-elimination phase in plasma after oral administration of 10-50 mg/kg in conscious dogs; Range is 2.2-2.9; type: ADME, organism-based, Canis lupus familiaris; conditions: dog
Canis familiaris [29] = test: Percent change in Mean Blood pressure after intravenous administration of 0.1 mg/kg in Anesthetized Dogs; type: functional, Canis lupus familiaris
Canis familiaris [30] = test: Percent change in rate of left ventricular pressure after intravenous administration of 0.01 mg/kg in Anesthetized Dogs; type: functional, Canis lupus familiaris, Heart left ventricle
Canis familiaris [31] = test: Percent change in rate of left ventricular pressure after intravenous administration of 0.03 mg/kg in Anesthetized Dogs; type: functional, Canis lupus familiaris, Heart left ventricle
Canis familiaris [32] = test: Percent change in rate of left ventricular pressure after intravenous administration of 0.1 mg/kg in Anesthetized Dogs; type: functional, Canis lupus familiaris, Heart left ventricle
Canis familiaris [33] = test: Percent change in QTc interval after intravenous administration of 0.03 mg/kg in Anesthetized Dogs; type: functional, Canis lupus familiaris
Canis familiaris [34] = test: Percent change in QTc interval after intravenous administration of 0.1 mg/kg in Anesthetized Dogs; type: functional, Canis lupus familiaris
Canis familiaris [35] = test: Percent change in Heart rate after intravenous administration of 0.1 mg/kg in Anesthetized Dogs; type: functional, Canis lupus familiaris
Canis familiaris [36] = test: Percent change in Effective refractory period after intravenous administration of 0.1 mg/kg in Anesthetized Dogs; type: functional, Canis lupus familiaris
Cavia porcellus [37] = species: Cavia porcellus; test: The maximum percent change in the maximum rate rise of the action Potential in Guinea pig right ventricular papillary muscles at concentration 0.1-100 uM; NS=Not significant; type: functional; conditions: Muscle tissue
Cavia porcellus [38] = species: Cavia porcellus; test: Concentration (0.1-100 uM) that causes 10% prolongation in the action potential duration at 90% […] in Guinea pig right ventricular papillary muscles; type: functional, Muscle tissue
Canis familiaris [39] = test: Percent change in QTc interval after intravenous administration of 0.01 mg/kg in Anesthetized Dogs; type: functional, Canis lupus familiaris
Canis familiaris [40] = test: Percent change in Effective refractory period after intravenous administration of 0.01 mg/kg in Anesthetized Dogs
Cavia porcellus [41] = species: Cavia porcellus; test: Concentration (1-10 uM) that causes 10% prolongation in the action potential duration at 90% […] in Guinea pig right ventricular papillary muscles; type: functional, Muscle tissue
Cavia porcellus [42] = species: Cavia porcellus; test: Maximum percent increase in 90% repolarization at a concentration of 10 uM in Guinea pig right ventricular papillary muscles; type: functional, Muscle tissue
Cavia porcellus [43] = species: Cavia porcellus; test: The maximum percent change in the maximum rate rise of the action Potential in Guinea pig right ventricular papillary muscles, at compound concentration 1-10 uM; NS=Not significant; type: functional; conditions: Muscle tissue
[44] = Half life of beta-elimination phase in plasma after oral administration of 10-50 mg/kg in conscious dogs; Range is 1.4-2.1; type: ADME, organism-based, Canis lupus familiaris; conditions: dog
Canis familiaris [45] = test: Percent change in Heart rate after intravenous administration of 0.01 mg/kg in Anesthetized Dogs

## CC(C)NCC(O)c1ccc(NS(C)(=O)=O)cc1 (stereo not drawn) [SOTALOL]
Canis familiaris [1]
  mBP(delta): 0%
Canis familiaris [2]
  mBP(delta): -7%
Canis familiaris [3]
  mBP(delta): -13%
Canis familiaris [4]
  LV dP/dTmax(delta): -1%
Canis familiaris [5]
  LV dP/dTmax(delta): -4%
Canis familiaris [6]
  QTc delta: 4%
Canis familiaris [7]
  QTc delta: 11%
Canis familiaris [8]
  QTc delta: 23%
Canis familiaris [9]
  HR(delta): -6%
Canis familiaris [10]
  HR(delta): -19%
Canis familiaris [11]
  HR(delta): -30%
Canis familiaris [12]
  ERP (delta): 5%
Canis familiaris [13]
  ERP (delta): 14%
Canis familiaris [14]
  ERP (delta): 26%
Cavia porcellus [15]
  C10APD90: 16.3 µM
Cavia porcellus [16]
  Max APD90 (delta): 21%
Cavia porcellus [17]
  Vmax: inactive
Canis familiaris [18]
  LV dP/dTmax(delta): 5%

## Cc1cccc(CCN2CCC(C(=O)c3ccc(NS(C)(=O)=O)cc3)CC2)n1.Cl.Cl
Canis familiaris [19]
  HR(delta): -8%
Canis familiaris [20]
  mBP(delta): -4%
Canis familiaris [21]
  mBP(delta): -6%
Canis familiaris [22]
  HR(delta): -20%
Canis familiaris [23]
  HR(delta): -30%
Canis familiaris [24]
  ERP (delta): 6%
Canis familiaris [25]
  ERP (delta): 15%
Canis familiaris [26]
  ERP (delta): 24%
Cavia porcellus [27]
  C10APD90: 0.13 µM

## CS(=O)(=O)Nc1ccc(C(=O)C2CCN(CCCc3ccncc3)CC2)cc1.Cl.Cl
[28]
  half-life: 2.2 h
Canis familiaris [20]
  mBP(delta): 2%
Canis familiaris [21]
  mBP(delta): -5%
Canis familiaris [29]
  mBP(delta): -9%
Canis familiaris [30]
  LV dP/dTmax(delta): 7%
Canis familiaris [31]
  LV dP/dTmax(delta): 13%
Canis familiaris [32]
  LV dP/dTmax(delta): 13%
Canis familiaris [33]
  QTc delta: 15%
Canis familiaris [34]
  QTc delta: 21%
Canis familiaris [22]
  HR(delta): -6%
Canis familiaris [23]
  HR(delta): -20%
Canis familiaris [35]
  HR(delta): -28%
Canis familiaris [36]
  ERP (delta): 19%
Canis familiaris [26]
  ERP (delta): 15%
Cavia porcellus [16]
  Max APD90 (delta): 33%
Cavia porcellus [37]
  Vmax: inactive
Cavia porcellus [38]
  C10APD90: 0.19 µM
Canis familiaris [39]
  QTc delta: 7%
Canis familiaris [40]
  ERP (delta): 11%

## CCCCCCC[N+](CC)(CC)CCCCc1ccc(Cl)cc1 [CLOFILIUM]
Cavia porcellus [41]
  C10APD90: 1 µM
Cavia porcellus [42]
  Max APD90 (delta): 13%
Cavia porcellus [43]
  Vmax: inactive

## CS(=O)(=O)Nc1ccc(C(=O)C2CCN(CCc3cccnc3)CC2)cc1.Cl.Cl
[44]
  half-life: 1.4 h
Canis familiaris [20]
  mBP(delta): -2%
Canis familiaris [21]
  mBP(delta): -2%
Canis familiaris [29]
  mBP(delta): -8%
Canis familiaris [30]
  LV dP/dTmax(delta): 8%
Canis familiaris [31]
  LV dP/dTmax(delta): 22%
Canis familiaris [32]
  LV dP/dTmax(delta): 26%
Canis familiaris [33]
  QTc delta: 13%
Canis familiaris [34]
  QTc delta: 25%
Canis familiaris [23]
  HR(delta): -8%
Canis familiaris [35]
  HR(delta): -17%
Canis familiaris [36]
  ERP (delta): 19%
Canis familiaris [25]
  ERP (delta): 6%
Canis familiaris [26]
  ERP (delta): 10%
Cavia porcellus [15]
  C10APD90: 1.51 µM
Cavia porcellus [16]
  Max APD90 (delta): 20%
Cavia porcellus [17]
  Vmax: inactive
Canis familiaris [39]
  QTc delta: 5%
Canis familiaris [45]
  HR(delta): -3%
